Measurements published in US20250268827A1, “COMBINED MEDICINAL DRUG INCLUDING LIPOSOME COMPOSITION ENCOMPASSING TOPOTECAN OR SALT THEREOF AND DNA DAMAGE REPAIR INHIBITOR” (FUJIFILM Corporation, priority 2022, published 2025).
Like-named read-outs stand apart in the source and are kept apart here.

What was measured:
[1] = test system: DMS114 (lung cancer cell line); test: In vitro cell proliferation inhibition test with isobologram analysis (Test Example 3), DMS 114; format: cell-based; conditions: DNA damage repair inhibitor combined with Lipo, 5 days culture
Procedure: (§1) A Cell Counting Kit-8 (Dojindo Molecular Technologies. Inc.) was used for a living cell detection method, and the absorbance at 460 nm after 4 hours of reagent addition was measured with a microplate reader to obtain the IC50 value. [table] As various DNA damage repair inhibitors to be used in combination with the liposome composition, the following DNA damage repair inhibitors were used; ceralasertib ([…] Biotechnology, Inc.) as an ATR inhibitor, prexasertib ([…] Biotechnology, Inc.) as a CHK1/2 inhibitor, […] Biotechnology, Inc.) as a DNA-PK inhibitor, […] Biotechnology, Inc.) as an ATM inhibitor, ZN-c3 ([…] Biotechnology, Inc.) as a WEE1 inhibitor, and olaparib ([…] Biotechnology, Inc.) as a PARP inhibitor. […] [table] […] First, the IC50 value of Lipo alone and the IC50 value of various DNA damage repair inhibitors alone were determined. Next, various DNA damage repair inhibitors were used in combination at each of the set concentration points of Lipo, and the IC50 value of the DNA damage repair inhibitors was determined. A value obtained by […] was denoted as “Lipo FIC”, and a value obtained by dividing this value by the IC50 value of the various DNA damage repair inhibitors was denoted as “various DNA damage repair inhibitor FIC”, and then these two values were recorded as one set of values. […] In addition, Lipo was used in combination at each of the concentration points of the various DNA damage repair inhibitors which were set in the same manner, and the IC50 value of the Lipo was determined. A value obtained by dividing this value by the IC50 value of Lipo alone was denoted as “Lipo FIC”, and a value obtained by dividing this value by the IC50 value of the various DNA damage repair inhibitors was denoted as “various DNA damage repair inhibitor FIC”, and then these two values were recorded as one set of values. […] As shown in Table 8 and Table 9, an isobologram was obtained by plotting each set of these values on the graph of various DNA damage repair inhibitors FIC v.s. Lipo FIC. […] A case of being plotted to the right indicates an “antagonistic effect”, which is regarded as an inappropriate effect of combined use. FIG. 5 to FIG. 21 show the results.

[2] = test system: ES-2 (ovarian cancer cell line); test: In vitro cell proliferation inhibition test with isobologram analysis (Test Example 3), ES-2; format: cell-based; conditions: DNA damage repair inhibitor combined with Lipo, 3 days culture
Procedure: as §1

[3] = test system: Capan-1 (pancreatic cancer cell line); test: In vitro cell proliferation inhibition test with isobologram analysis (Test Example 3), Capan-1; format: cell-based, human; conditions: for effect of combined use with Lipo in isobologram analysis / DNA damage repair inhibitor (Ceralasertib) FIC: Capan-1; for effect of combined use with Lipo in isobologram analysis: DNA damage repair inhibitor combined with Lipo, 6 days culture; for IC50: Homo sapiens, CAPAN-1, Capan-1, read-out: IC50 value (nmol/L) of DNA damage repair inhibitor (Ceralasertib) at each of concentration points of Lipo
Procedure: as §1

[4] = test system: Capan-1 cells (human pancreatic cancer cell line) subcutaneous tumor; test: Drug efficacy in pancreatic cancer cell line (Capan-1) model, combined use of Lipo and olaparib (Test Example 1); format: in vivo, mouse Balb/cAJcl-nu/nu; conditions: same dosing as Table 1; relative to no-drug group; day 28

SMILES: C[C@@H]1COCCN1c1cc(C2([S@](C)(=N)=O)CC2)nc(-c2cc[nH]c3nccc2-3)n1 [Ceralasertib]
- effect of combined use with Lipo in isobologram analysis [1]: synergistic effect
- effect of combined use with Lipo in isobologram analysis [2]: synergistic effect
- effect of combined use with Lipo in isobologram analysis [3]: synergistic effect
- DNA damage repair inhibitor (Ceralasertib) FIC ([3]; Table 8, Lipo 0.0 nmol/L): 1.0
- DNA damage repair inhibitor (Ceralasertib) FIC ([3]; Table 8, Lipo 0.14 nmol/L): 0.7
- DNA damage repair inhibitor (Ceralasertib) FIC ([3]; Table 8, Lipo 0.41 nmol/L): 0.9
- DNA damage repair inhibitor (Ceralasertib) FIC ([3]; Table 8, Lipo 1.23 nmol/L): 0.9
- DNA damage repair inhibitor (Ceralasertib) FIC ([3]; Table 8, Lipo 3.7 nmol/L): 0.2
- DNA damage repair inhibitor (Ceralasertib) FIC ([3]; Table 8, Lipo 11.1 nmol/L): 0.02
- DNA damage repair inhibitor (Ceralasertib) FIC ([3]; Table 9, ceralasertib 0.0 nmol/L): 0.0
- DNA damage repair inhibitor (Ceralasertib) FIC ([3]; Table 9, ceralasertib 4.57 nmol/L with Lipo): 0.01
- DNA damage repair inhibitor (Ceralasertib) FIC ([3]; Table 9, ceralasertib 13.7 nmol/L with Lipo): 0.02
- DNA damage repair inhibitor (Ceralasertib) FIC ([3]; Table 9, ceralasertib 41.2 nmol/L with Lipo): 0.05
- DNA damage repair inhibitor (Ceralasertib) FIC ([3]; Table 9, ceralasertib 123 nmol/L with Lipo): 0.1
- DNA damage repair inhibitor (Ceralasertib) FIC ([3]; Table 9, ceralasertib 370 nmol/L with Lipo): 0.4
- IC50 ([3]; Lipo 0.0 nmol/L (ceralasertib alone)): 893 nmol/L
- IC50 ([3]; combined with Lipo 0.14 nmol/L): 634 nmol/L
- IC50 ([3]; combined with Lipo 0.41 nmol/L): 809 nmol/L
- IC50 ([3]; combined with Lipo 1.23 nmol/L): 798 nmol/L
- IC50 ([3]; combined with Lipo 3.7 nmol/L): 181 nmol/L
- IC50 ([3]; combined with Lipo 11.1 nmol/L): 14.9 nmol/L

SMILES: COc1ccc([C@@H](O)c2cc(-c3ncnc4cc(N5CCOCC5)ccc34)c(F)cc2Cl)nn1 [Example M3814]
- effect of combined use with Lipo in isobologram analysis [1]: synergistic effect
- effect of combined use with Lipo in isobologram analysis [2]: additive effect
- effect of combined use with Lipo in isobologram analysis [3]: synergistic effect

SMILES: COc1cc2ncc3c(c2cc1-c1cn(C)nc1C)n(-c1c(F)cncc1OC)c(=O)n3C [Example M4076]
- effect of combined use with Lipo in isobologram analysis [1]: synergistic effect
- effect of combined use with Lipo in isobologram analysis [2]: synergistic effect
- effect of combined use with Lipo in isobologram analysis [3]: additive effect

SMILES: O=C(c1cc(Cc2n[nH]c(=O)c3ccccc23)ccc1F)N1CCN(C(=O)C2CC2)CC1 [Olaparib]
- effect of combined use with Lipo in isobologram analysis [1]: synergistic effect
- Drug efficacy (tumor diameter) 28 days after administration, proportion to Comparative Example 1 [4]: (80%)
- Safety (body weight: g) 28 days after administration (Capan-1 tumor-bearing female nude mice, Lipo 0.5 mg/kg or topotecan 5 mg/kg i.v. weekly x 4, olaparib 50 mg/kg i.p. daily x 6 days/week x 4 weeks, day 28): 103 g
- Safety (body weight) 28 days after administration, proportion to Comparative Example 1 (same dosing as Table 1, relative to no-drug group, day 28): (97%)
- effect of combined use with Lipo in isobologram analysis [2]: synergistic effect
- effect of combined use with Lipo in isobologram analysis [3]: synergistic effect

SMILES: CC[C@@]1(O)C(=O)OCc2c1cc1n(c2=O)Cc2cc3c(CN(C)C)c(O)ccc3nc2-1 [Topotecan]
- Drug efficacy (tumor diameter) 28 days after administration, proportion to Comparative Example 1 [4]: (80%)
- Safety (body weight) 28 days after administration, proportion to Comparative Example 1 (mouse, in vivo): (96%)

SMILES: C=CCn1c(=O)c2cnc(Nc3ccc(N4CCN(C)CC4)cc3)nc2n1-c1ccc2c(n1)[C@@](O)(CC)CC2 [ZN-c3]
- effect of combined use with Lipo in isobologram analysis [1]: additive effect
- effect of combined use with Lipo in isobologram analysis [2]: synergistic effect
- effect of combined use with Lipo in isobologram analysis [3]: additive effect

SMILES: COc1cccc(OCCCN)c1-c1cc(Nc2cnc(C#N)cn2)n[nH]1 [prexasertib]
- effect of combined use with Lipo in isobologram analysis [1]: synergistic effect
- effect of combined use with Lipo in isobologram analysis [2]: synergistic effect
